Data on 3 compounds can be found in patent US12071671B2 (priority 2018, dated 2024).

As a reminder, the IC50 is the concentration that gives 50% inhibition.

Where two headings read alike, the source gives them in different places.

Experiment [1] has as its system HMCLs with the low AOX/ROS risk signatures (JJN3, XG-6, XG-19, XG-20, XG-24). Briefly: HMCL viability, Cell Titer Glo assay, IC50 at 96h (low AOX/ROS risk signature lines). The class given is cell-based, human. Particulars: for IC50: Homo sapiens; for fold higher sensitivity of low AOX/ROS HMCLs as compared to high AOX/ROS HMCLs: ratio of median IC50 at 96h, p<0.003. How it is done: (§1) The HMCLs XG-6, XG-19, XG-20, XG24, JJN3, AMO1, LP1, L363, OPM2 and RPMI8226 were grown in RPMI-1640 supplemented with 10% FBS. XG-6, XG-19, XG-20, XG-24, and LP1 media was supplemented with 2 ng/mL recombinant IL-6. Cells were plated in 96-well plate in 200 μL complete medium. After 24h, cells were treated with increasing concentrations of Melphalan (European Pharmacopeia Reference-Standards, France) or Bortezomib (Axon, Medchem, France) and at day 4 post treatment, the viable cells were assessed using Cell Titer Glo assay (Promega, Madison, WI). The IC50 at 96h were determined using GraphPad Prism software.
(§2) Considering the GEP of 40 HMCLs (Moreaux et al., 2011), HMCLs AOX and ROS risk signatures were determined. The 5 HMCLs with the highest (AMO1, L363, LP1, OPM2, RPMI8266) and the lowest (JJN3, XG-6, XG-19, XG-20, XG-24) AOX/ROS scores were selected to assay Melphalan and Bortezomib sensitivities (Moreaux et al., 2012 and Moreaux et al., 2013).

Experiment [2] concerns HMCLs with high AOX/ROS risk signatures (AMO1, L363, LP1, OPM2, RPMI8266). Briefly: HMCL viability, Cell Titer Glo assay, IC50 at 96h (high AOX/ROS risk signature lines). Conditions: Homo sapiens. The class given is cell-based. How it is done:
as §1, §2
(In general: ATP-based viability assays read luminescence as a measure of living cells.)

For experiment [3], the system named is CD138+ cells from patients (primary myeloma cells). The experiment in a line: Primary CD138+ myeloma cells from patient bone marrow samples, flow cytometry with anti-CD138 APC antibody after 5 days. The class given is cell-based, human. Conditions: 5 mM GSH with 10, 20 and 30 μM Melphalan, n=10 patients, p<0.05. On the technique in general: In flow cytometry, cells or beads pass a laser one at a time.
Method: After 5 days the percentage and absolute number of CD138^+ cells was assessed by flow cytometry using an anti-CD138 APC antibody. * indicates a significant difference using a Student test for pairs (P≤0.05).

For `CC(C)C[C@H](NC(=O)[C@H](Cc1ccccc1)NC(=O)c1cnccn1)B(O)O` [Bortezomib], the half-inhibitory concentration (IC50) was 0.00051 µM in experiment [1] (JJN-3, low AOX/ROS HMCLs, 96h, median over 5 cell lines, read-out: Median IC50) and 0.00027 to 0.00085 µM in experiment [1] (JJN-3, low AOX/ROS HMCLs, 96h, range over 5 cell lines, read-out: IC50 range). For the same compound, the “fold higher sensitivity of low AOX/ROS HMCLs as compared to high AOX/ROS HMCLs” value in experiment [1] was determined as 3.5 fold.

As for `N[C@@H](Cc1ccc(N(CCCl)CCCl)cc1)C(=O)O` [Melphalan], the half-inhibitory concentration (IC50) in experiment [1] (JJN-3, 96 h, read-out: IC50 range) is 2.25 to 8.34 µM; in experiment [1] (JJN-3, 96 h, read-out: Median IC50), 3.11 µM; in experiment [2] (read-out: IC50 range) it was 9.02 to 18.7 µM; in experiment [2] (read-out: Median IC50), 13.7 µM. The “fold higher sensitivity of low AOX/ROS HMCLs as compared to high AOX/ROS HMCLs” value in experiment [1] is recorded as 4 fold.

For the compound `N[C@@H](CCC(=O)N[C@@H](CS)C(=O)NCC(=O)O)C(=O)O` [GSH, glutathione], the “protection of primary myeloma cells from melphalan induced apoptosis” value in experiment [3] is recorded as “significantly protect”.
